Test results from a melting point compilation (Tetko et al.; mined from patent text by program, amines drawn as free bases though some values may be those of a salt).

SMILES | melting point [°C]
COc1c(Cl)ccc(-c2nc(C=O)c(Cl)c(N)c2F)c1F | 192 to 196
CNC(=O)c1ccc(C)c(-n2c(C)cc(OCc3ccccc3CNC(=O)Nc3cc(C(C)(C)C)nn3-c3cccc(OCCO)c3)c(Cl)c2=O)c1 | 168 to 170
c1ccc(-c2nc(COc3ccc(CCCn4ccnc4)cc3)co2)cc1 | 111 to 112
CC(c1cc(F)cc(F)c1)n1ncc(-c2ccc(S(N)(=O)=O)cc2)c(-c2ccc(F)cc2)c1=O (stereo not drawn) | 139 to 141
CCOC(OCC)c1nc(-c2ccc(Cl)cc2)c(F)c(N=C2C=CC(=O)C=C2)c1Cl | 134 to 136
O=C(O)C1Cc2c(c(Cl)cc3c(-c4ccccc4F)noc23)O1 (stereo not drawn) | 199 to 200
CS(=O)(=O)Nc1cccc2c(-c3ccccc3)c([N+](=O)[O-])oc12 | 169 to 172
C=COC(=O)[C@H](Cc1ccccc1)NC(C)=O | 90 to 93
Cc1cccc(/C=C/c2nc(COc3ccc(CCCCn4ccnc4CCO)cc3)co2)c1 | 109 to 111
CCOC(=O)c1ccc(C(=O)Nc2ccc3c(c2)N(C)C(=O)C(C)(C)C(=O)N3C)cc1 | > 270
O=C(O)COc1cccc2c1CC(S(=O)(=O)Cc1ccccc1)c1sc(-c3ccc(F)cc3)nc1-2 (stereo not drawn) | 210 to 211
CN(CC(=O)c1ccc(Br)cc1)C(=O)OC(C)(C)C | 87 to 90
COc1cc2ncnc(N3CCCN(C(=O)Nc4ccc([N+](=O)[O-])cc4)CC3)c2cc1OC | 243 to 244
CC1(C)OC(c2ccc(S(C)(=O)=O)cc2)=C(c2ccc3c(c2)OCO3)C1=O | 178 to 179
COC(C(=O)O)c1nn(-c2ccc(Cl)cc2)c2c1CCCC2 (stereo not drawn) | 185 to 186
O=C(O)Cn1cc(C(=O)c2ccn3c2CSC3c2cccnc2)c2ccc(-c3ccc(F)cc3)cc21 (stereo not drawn) | 240 to 249
CC(C)(C)c1cc(C(O)COc2ccc(C(=O)O)c(O)c2)cc(C(C)(C)C)c1O (stereo not drawn) | 132 to 133
CCCOC12CCC(=O)C3(C)Oc4c(O)ccc5c4C31CCN(CC1CC1)C2C5 (stereo not drawn) | 184 to 186
CCOc1ccc(/C=C/c2cc(OC)cc(OC)c2)cc1 | 54 to 55
COCCOC(=O)COc1ccc(C(=O)[C@H](COC(C)(C)C)NC(=O)c2ccc(C(=N)NC(=O)OC(C)(C)C)cc2)cc1 | 174
CC(Cl)(Cl)C(NC(=O)c1cc(F)cc(F)c1)Nc1c(Nc2cccnc2)c(=O)c1=O (stereo not drawn) | 231 to 232
Cc1cc(=O)[nH]n(Cc2ccccc2)c1=O | > 200
N=C(N)Nc1nc(CCCCNC(N)=N[N+](=O)[O-])cs1 | 180 to 181
O=C(CCC(=O)c1cccs1)Nc1cccc2cc(-c3nccs3)[nH]c12 | 140 to 141
O=C(NCCCn1cncn1)c1ccc(I)cc1 | 132 to 134

SMILES | melting point [°C]
CCCCCNc1cc(C(=O)O)cc(S(N)(=O)=O)c1Oc1ccccc1 | 223 to 224
CCOC(=O)N1c2cc(OC)c(OC)cc2[C@H](NC(=O)Cc2cc(C(F)(F)F)cc(C(F)(F)F)c2)C[C@@H]1C (relative stereo) | 157 to 159
COc1cc2c(c3c1OC(C)(C)C3)C(c1cccc(NC(C)=O)c1)=NC(C)(C)C2 | 246 to 247
O=P1(O)Oc2c(-c3ccccc3)cc(Cl)cc2-c2ccccc21 | 260
Cc1cc(-c2ccc(Cl)cc2)sc1C(=O)O | 245 to 246
O=C(NCc1ccncc1)c1cc2ccnc(N(Cc3ccccc3)Cc3ccccc3)c2[nH]1 | 119 to 120
CCOC(=O)C1C(OC)C(=O)N1c1ccc(OC)cc1 (stereo not drawn) | 116 to 118
N#Cc1cc(Cn2nnc(C(N)=O)c2N)ccc1Cl | 172 to 175
O=C(CCl)Nc1nc(-c2ccccc2)cs1 | 179 to 181
[N-]=[N+]=Nc1nc(N=[N+]=[N-])nc(-c2ccccc2)n1 | 130 to 132
COc1cc(N(C)C)c(Cl)cc1C(=O)NCC1CN(CCCOc2ccc(Cl)cc2)CCO1 (stereo not drawn) | 128 to 130
CCOc1cc2c3ccccc3c(C=O)cc2c2ccccc12 | 174 to 176
CC(=O)Oc1ccc(Oc2ccc(NC(=O)Nc3cc(C(C)(C)C)on3)cc2)cc1 | 146
CCn1c(C)nc2cc(S(C)(=O)=O)ccc21 | 140 to 142
CN(C)C(=O)Oc1c(N2CCCC2)c(=O)n(-c2ccccc2)c2ncccc12 | 218 to 220
COc1ccc2cc(C(=O)CNC(=O)c3cn(Cc4ccccc4)c4ccccc34)ccc2c1 | 177 to 179
CC(=O)OC1C(C)OC(Oc2ncn(Cc3ccc([N+](=O)[O-])cc3)c2C(N)=O)C(OC(C)=O)C1OC(C)=O (stereo not drawn) | 103 to 105
O=c1[nH]c2cc(O)ccc2n1CCN1CCN(c2cccc(C(F)(F)F)c2)CC1 | 275
COc1ccc(C(=O)N2CCN(c3cc4ccccc4cn3)CC2)cc1 | 156 to 159
COc1cc(C=O)c2oc(-c3ccc(OC)c(F)c3)cc2c1 | 161 to 163
CNc1nc(-c2cccc(-c3ccc(S(C)=O)cc3)c2)c2cc(OC)c(OC)cc2n1 (stereo not drawn) | 153 to 155
CS(=O)(=O)CCc1nc2nc[nH]c2c2nc(-c3ccc(-c4ccccc4)cc3)nn12 | 280
Fc1ccc(C(c2ccccc2)(c2ccccc2)n2ccnc2)cc1 | 146
CC(C)(N)c1ccc(-c2nc(Nc3cccc(CCN4CCOCC4)c3)ncc2C#N)cc1 | 166 to 167
CC(C)(C)N(NC(=O)c1ccccn1)C(=O)c1ccccc1[N+](=O)[O-] | 137 to 140

SMILES | melting point [°C]
CN(C)C(=O)c1nc(-c2ccccc2)nc2[nH]c3cc(Cl)ccc3c12 | 232 to 233
CNC(=N[N+](=O)[O-])N(Cc1cnc(Cl)s1)C(=O)C(C)C | 101 to 104
CC(C)C(=O)c1c(C2CC2)nn2ccccc12 | 108 to 109
CCc1nc2c(C)cc(C)nc2n1Cc1ccc(C(=C(Br)c2nnn[nH]2)c2ccccc2)cc1 | 149 to 151
c1ccc(OCCSCc2nnc(-c3ccc(OCCN4CCCC4)cc3)o2)cc1 | 65
O=Cc1ccccc1P(=O)(c1ccccc1)c1ccccc1 | 131 to 134
CC(CCCC(C)(C)O)C1CCC2C3=CC=C4CC(O)CCC4(C)C3CCC21C (stereo not drawn) | 122 to 125
CCc1nc2c(N)nc3ccccc3c2n1CCCCNC(=O)Nc1ccccc1 | 180 to 181
CSC(=N[N+](=O)[O-])NC(C)=O | 109 to 110
NP(N)(=O)NC(=O)C=Cc1ccccc1 | 176 to 178
Cc1nn(C)cc1C(=O)NC(C#N)c1ccco1 (stereo not drawn) | 122
CCOC(=O)c1cnc(CCOC)nc1O | 115 to 118
CCc1nc2nc(C)nn2c(O)c1CCC(C)CC(C)(C)C (stereo not drawn) | 183 to 185
CCCNC(=O)Nc1ccc2oc([N+](=O)[O-])c(-c3ccccc3)c2c1 | 199 to 201
COC(=O)C(C)Oc1cccc(C=O)c1 (stereo not drawn) | 50.7
CCCCc1ccc(-c2ccc(CCc3ccc(F)cc3)cc2)c(F)c1 | 35
CCCCCCCCCCCCCCOc1ccc(C(=O)OCC)o1 | 39 to 40
CC(=NOCC(=O)O)c1ccc(NS(C)(=O)=O)c(Oc2ccc(F)cc2F)c1 | 174 to 175
Cc1cc(-c2ccc(Cl)cc2)nc2c(C(=O)Nc3cccc(S(C)(=O)=O)c3)cnn12 | 250 to 251
CCOC(=O)C1=C(COCC(C)(O)Cn2cncn2)NC(C)=C(C(=O)OC)C1c1cccc(Cl)c1Cl (stereo not drawn) | 149 to 160
COc1ccccc1-c1ccc(C[C@@H](NC(=O)c2c(Cl)cccc2Cl)C(=O)O)cc1 | 195
CCOC(=O)/C=C(C)/C=C/C=C(C)/C=C/c1c(Cl)cc(OC(F)(F)F)c(C)c1Cl | 93 to 94
CC(C)(C)OC(=O)NC1Cc2cccc(c2)CC(C(=O)O)NC(=O)CNC1=O (stereo not drawn) | > 250
CCn1cccc1C(N)=S | 71.5 to 74.5
Oc1cccc(/C=C/c2nc3ccccc3s2)c1 | 210 to 211

SMILES | melting point [°C]
Cc1cccc(-c2nc(N)sc2-c2ccnc(-c3ccc(OCCN4CCCC4)cc3)c2)n1 | 176 to 178
COc1ccc2c(c1)CCC1C2CCC2(C)C1CCC2N(C)CCCO (stereo not drawn) | 122 to 124
CCOC(=O)c1nocc1O | 59 to 60
Nc1c([N+](=O)[O-])cc(O)cc1[N+](=O)[O-] | 230
COc1ccc(C=CC(=O)O)cc1-c1cc2c(cc1OCc1ccccc1)C(C)(C)CCC2(C)C | 200 to 202
O=C(Nc1ccc(-n2nc(C3CC3)cc2C2CC2)cc1)Nc1ccc2ncccc2c1 | 102 to 104
C=C(C(=O)c1ccccc1)c1cccnc1 | 113 to 114
Cc1nn(-c2cc(Oc3ccc(N)cc3)c(Cl)cc2F)c(=O)n1C(F)F | 133 to 135
Cc1cc(C(C)(C)C)cc(C)c1S(=O)(=O)C[N+](=O)[O-] | 90 to 92
CC(=O)c1cc(Oc2ncccc2C(=O)NC[C@H]2CC[C@H](C(C)(C)O)CC2)ccc1Cl | 106 to 108
COc1cc(OC)c2c(=O)c3ccccc3oc2c1 | 170 to 171
NC(=O)Cc1cn(-c2ccccc2)nc1-c1ccc(Cl)cc1 | 182
Nc1nc2ccccc2c2c1ncn2CCCCNC(=O)c1cccc2cccnc12 | 91 to 93
CC(C)(C)c1cc(-c2nn(CCN3CCCC3=O)c3ncccc23)cc(C(C)(C)C)c1O | 148 to 150
CON=C(C(=O)OC)c1ccccc1/C=C(\Cl)C(=O)O | 107 to 109
CS(=O)(=O)c1ccc(C(Cc2ccc(F)cc2Cl)C(=O)Nc2nc3ccccc3o2)cc1 (stereo not drawn) | 127 to 128
CCOC(=O)c1cc(CC)sc1Nc1ccc([N+](=O)[O-])cc1N | 174 to 176
Nc1c(F)cc(Cl)cc1C(O)(C#CC1CC1)C(F)(F)F (stereo not drawn) | 131 to 135
Fc1ccc(-c2ccn(C3CCNCC3)c2-c2ccncc2)cc1 | 191 to 192
O=C(Nc1cc(C(F)(F)F)c[nH]c1=O)c1ccccc1 | 207 to 210
CCCCCCCCCCS(=O)(=O)Oc1c(I)cc(I)cc1I | 71 to 72
CCC(C)C1C(=O)NN(c2ccc(Cl)c(Cl)c2)C1=O (stereo not drawn) | 118 to 120
CCOC(=O)N1CCC2C(C1)c1cccc3c1N2CC(=O)N3 (stereo not drawn) | 167 to 168
